In the assay the test system is HBV cccDNA (HBeAg level in HepDES19 cells). In words: Engineered HepDES19 primary screen assay (HBeAg ELISA as surrogate marker for cccDNA). Particulars: Hepatitis B virus, HepDES19, 120 h. The format is cell-based. The text has this:
The assay was employed to screen for novel HBV cccDNA inhibitors. HepDES19 is a HBV cccDNA-producing cell line. In this cell line, HBeAg in the cell culture supernatant as surrogate marker, as HBeAg production depends on cccDNA level and activity. HepDES19 is an engineered cell line which contains a 1.1 unit length HBV genome, and pgRNA transcription from the transgene is controlled by Tetracycline (Tet). In the absence of Tet, pgRNA transcription will be induced, but HBV e antigen (HBeAg) could not be produced from this pgRNA due to very short leader sequence before the HBeAg start codon and the start codon is disrupted. Only after cccDNA is formed, the missing leader sequence and start codon mutation would be restored from the 3′-terminal redundancy of pgRNA, and then HBeAg could be synthesized. Therefore, HBeAg could be used as a surrogate marker for cccDNA (Zhou, T. et al., Antiviral Res. (2006), 72(2), 116-124; Guo, H. et al., J. Virol. (2007), 81(22), 12472-12484).
HepDES19 cells were seeded at 2×10^6 cells per T150 flask and cultured with the culture medium (Dulbecco's Modified Eagle Medium: Nutrient Mixture F-12 [DMEM-F12, Gibco Cat. 11320-82], 10% Fetal Bovine Serum [FBS, Clontech Cat. 631101], 0.1 mM Non-Essential Amino Acids Solution [NEAA, Gibco Cat. 11140-050], 50 μg/mL Penicillin-Streptomycin [PS, Invitrogen Cat. 15140-163], 500 μg/mL Geneticin [G418, Invitrogen Cat. 10131-027]) containing 3 μg/mL Tet (Sigma, Cat. 87128) for 5 days. Cells were then seeded at 4×10^6 cells per T150 in the same culture medium as described above in the absence of Tet for 8 days. Cells were then harvested and frozen at density of 2×10^6 cells per mL. For compound testing, the frozen cells were thawed and seeded into 96-well plates at a density of 6×10^4 cells per well. At 24 hrs after seeding, half log serial dilutions of compounds made with Dimethyl sulfoxide (DMSO, Sigma, Cat. D2650) were further diluted with the same culture medium as described above before they were added to the cells to reach desired final compound concentrations and 1% DMSO concentration. Plates were then incubated at 37° C. for another 5 days before measurement of HBeAg level and cell viability. Intracellular HBeAg level were measured with enzyme-linked immunosorbent assay (ELISA) kit (Shanghai Kehua Diagnostic Medical Products Co., Ltd). Cell viability was assessed using Cell Counting Kit-8 (Donjindo, Cat. CK04-20). IC50 values were derived from the dose-response curve using 4 parameter logistic curve fit method.
The compounds of the present invention were tested for their capacity to inhibit extracellular HBeAg level as described herein.
As to `CCOc1ccc(-c2nc(C(=O)O)c3cccc(Cl)c3n2)cn1` [Example 48, 8-Chloro-2-(6-ethoxy-3-pyridyl)quinazoline-4-carboxylic acid], inhibition was half-maximal at 7.57 µM (IC50). This lies in the single-digit micromolar range.

The compound `O=C(O)c1nc(-c2ccc(Br)cc2)nc2c(Cl)cccc12` [Example 37, 2-(4-Bromophenyl)-8-chloroquinazoline-4-carboxylic acid] showed an IC50 of 2.24 µM.

Consider `CN(C)c1ccc(-c2ncc3cccc(Cl)c3n2)cn1` [Example 26, 5-(8-Chloroquinazolin-2-yl)-N,N-dimethylpyridin-2-amine], for which the IC50 amounted to 0.091 µM.

As for `O=C(O)c1nc(-c2ccc(OCCO[C@H]3C[C@@H](C(=O)O)C3)nc2)nc2c(Cl)cccc12` [Example 50, cis-2-[6-[2-(3-Carboxycyclobutoxy)ethoxy]-3-pyridyl]-8-chloro-quinazoline-4-carboxylic acid], inhibition was half-maximal at 15 µM (IC50).

Regarding `Cc1nc(-c2ccc(Cl)cc2)nc2c(Cl)cccc12` [Example 13, 8-Chloro-2-(4-chlorophenyl)-4-methylquinazoline], the IC50 worked out at 1.03 µM. Compared with the last compound, the IC50 is about 15-fold lower.

On to `Clc1ccc(-c2ncc3cccc(Cl)c3n2)cn1` [Example 24, 8-Chloro-2-(6-chloropyridin-3-yl)quinazoline], for which inhibition was half-maximal at 0.094 µM (IC50).

The compound `Cc1nc(-c2ccc(Br)cc2)nc2c(Cl)cccc12` [Example 40, 2-(4-Bromophenyl)-8-chloro-4-methyl-quinazoline] had an IC50 of 0.082 µM. The IC50 values of the last two compounds are within 1.5-fold of each other.

`O=C(O)c1nc(-c2cccc(Br)c2)nc2cc(C(F)(F)F)ccc12` [Example 31, 2-(3-Bromo-phenyl)-7-trifluoromethyl-quinazoline-4-carboxylic acid] registered an IC50 of 17.8 µM.

The compound `O=C(O)C1CCN(c2ccc(-c3ncc4cccc(Cl)c4n3)cn2)CC1` [Example 30, 1-(5-(8-chloroquinazolin-2-yl)pyridin-2-yl)piperidine-4-carboxylic acid] had an IC50 of 7.63 µM. Against the preceding compound, the IC50 is about 2.3-fold lower.

Take `O=C(O)c1nc(-c2ccc(Cl)nc2)nc2c(Cl)cccc12` [Example 45, 8-Chloro-2-(6-chloro-3-pyridyl)quinazoline-4-carboxylic acid]: half-maximal inhibition (IC50) was put at 0.66 µM. Against the preceding compound, the IC50 is about 12-fold lower.

Take `FC(F)(F)c1ccc2c(CN3CCOCC3)nc(-c3cccc(Br)c3)nc2c1` [Example 18, 4-((2-(3-Bromophenyl)-7-(trifluoromethyl)quinazolin-4-yl)methyl)morpholine]: half-maximal inhibition (IC50) was put at 1.93 µM.

`CN(C)Cc1nc(-c2cccc(Br)c2)nc2cc(C(F)(F)F)ccc12` [Example 17, 1-(2-(3-Bromophenyl)-7-(trifluoromethyl)quinazolin-4-yl)-N,N-dimethylmethanamine] returned an IC50 of 4.66 µM. This IC50 is about 2.4-fold higher than that of the compound before.

The compound `O=C(O)[C@H]1C[C@@H](OCCOc2ccc(-c3ncc4cccc(Cl)c4n3)cc2)C1` [Example 42, cis-3-[2-[4-(8-Chloroquinazolin-2-yl)phenoxy]ethoxy]cyclobutanecarboxylic acid] had an IC50 of 16.9 µM.

`COC(=O)C1CCN(c2ccc(-c3ncc4cccc(Cl)c4n3)cn2)CC1` [Example 29, Methyl 1-(5-(8-chloroquinazolin-2-yl)pyridin-2-yl)piperidine-4-carboxylate] came in with an IC50 of 1.23 µM. Compared with the last compound, the IC50 is about 14-fold lower.

Consider `O=C(O)c1nc(-c2ccc(N3CCCC3)nc2)nc2c(Cl)cccc12` [Example 49, 8-Chloro-2-(6-pyrrolidin-1-yl-3-pyridyl)quinazoline-4-carboxylic acid], for which the IC50 stood at 11 µM.

As to `O=C(O)c1nc(-c2ccc(Br)cc2)nc2cc(C(F)(F)F)ccc12` [Example 43, 2-(4-Bromophenyl)-7-(trifluoromethyl)quinazoline-4-carboxylic acid], the IC50 stood at 12.9 µM. The IC50 values of the last two compounds are within 1.5-fold of each other.

For `COc1ccc(-c2nc(C(=O)O)c3cccc(Cl)c3n2)cc1` [Example 33, 8-Chloro-2-(4-methoxyphenyl)quinazoline-4-carboxylic acid], the IC50 is 7.75 µM.

Compound `O=C(c1nc(-c2ccc(Br)cc2)nc2cc(C(F)(F)F)ccc12)N1CCOCC1` [Example 44, [2-(4-Bromophenyl)-7-(trifluoromethyl)quinazolin-4-yl]-morpholino-methanone] came in with an IC50 of 8.7 µM.

Regarding `Cc1nc(-c2cccc(C(F)(F)F)c2)nc2cc(Br)ccc12` [Example 3, 7-Bromo-4-methyl-2-[3-(trifluoromethyl)phenyl]quinazoline], the IC50 was 0.75 µM.

`Cc1nc(-c2ccc(OCCOCC(=O)O)cc2)nc2c(Cl)cccc12` [Example 11, 2-[2-[4-(8-Chloro-4-methyl-quinazolin-2-yl)phenoxy]ethoxy]acetic acid] showed an IC50 of 4.49 µM.

`Clc1cccc2cnc(-c3ccc(Br)cc3)nc12` [Example 1, 2-(4-Bromophenyl)-8-chloroquinazoline] showed an IC50 of 0.1 µM.

Take `Oc1ccc(-c2ncc3cccc(Cl)c3n2)cn1` [Example 25, 5-(8-Chloroquinazolin-2-yl)pyridin-2-ol]: the IC50 came to 4.68 µM.

`OCc1nc(-c2ccc(Cl)cc2)nc2c(Cl)cccc12` [Example 21, (8-Chloro-2-(4-chlorophenyl)quinazolin-4-yl)methanol]: the IC50 was 0.094 µM.

In turn, `CCOC(=O)c1nc(-c2ccc(Br)cc2)nc2c(Cl)cccc12` [Example 38, ethyl 2-(4-bromophenyl)-8-chloro-quinazoline-4-carboxylate] displayed an IC50 of 1.16 µM.

For `Clc1cccc2cnc(-c3ccc(N4CCOCC4)nc3)nc12` [Example 27, 4-(5-(8-Chloroquinazolin-2-yl)pyridin-2-yl)morpholine], half-maximal inhibition (IC50) was put at 0.59 µM. This IC50 is about 2-fold lower than that of the compound before.

Take `O=C(O)c1cccc(COc2ccc(-c3ncc4cccc(Cl)c4n3)cc2)c1` [Example 7, 3-((4-(8-Chloroquinazolin-2-yl)phenoxy)methyl)benzoic acid]: the IC50 came to 0.22 µM. Compared with the last compound, the IC50 is about 2.7-fold lower.

Compound `Cc1nc(-c2ccc(Cl)nc2)nc2c(Cl)cccc12` [Example 23, 8-Chloro-2-(6-chloropyridin-3-yl)-4-methylquinazoline] had an IC50 of 0.22 µM.

`Cc1nc(-c2cccc(Br)c2)nc2cc(C(F)(F)F)c(Cl)cc12` [Example 4, 2-(3-Bromophenyl)-6-chloro-4-methyl-7-(trifluoromethyl)quinazoline]: inhibition was half-maximal at 3.62 µM (IC50). This IC50 lies about 16-fold higher than the previous one.

The compound `OCCN(CCO)c1ccc(-c2ncc3cccc(Cl)c3n2)cn1` [Example 28, 2,2′-((5-(8-Chloroquinazolin-2-yl)pyridin-2-yl)azanediyl)diethanol] yielded an IC50 of 0.3 µM.

`Cc1nc(-c2ccc(OCCOCC(=O)O)cc2)nc2cc(C(F)(F)F)ccc12` [Example 14, 2-(2-(4-(4-Methyl-7-(trifluoromethyl)quinazolin-2-yl)phenoxy)ethoxy)acetic acid] registered an IC50 of 29.9 µM.

In the case of `O=C(O)COCCOc1ccc(-c2ncc3cccc(Cl)c3n2)cn1` [Example 51, 2-[2-[[5-(8-Chloroquinazolin-2-yl)-2-pyridyl]oxy]ethoxy]acetic acid], inhibition was half-maximal at 4.86 µM (IC50).

Compound `COC(=O)c1nc(-c2cccc(Br)c2)nc2cc(C(F)(F)F)ccc12` [Example 32, Methyl 2-(3-bromophenyl)-7-(trifluoromethyl)quinazoline-4-carboxylate] came in with an IC50 of 6.19 µM.

The compound `COC(=O)COCCOc1ccc(-c2nc(C)c3cccc(Cl)c3n2)cc1` [Example 10, Methyl 2-[2-[4-(8-chloro-4-methyl-quinazolin-2-yl)phenoxy]ethoxy]acetate] returned an IC50 of 1.04 µM.

As to `COc1ccc(-c2nc(C(=O)NCCO)c3cccc(Cl)c3n2)cc1` [Example 35, 8-Chloro-N-(2-hydroxyethyl)-2-(4-methoxyphenyl)quinazoline-4-carboxamide], the IC50 is 16.1 µM. Against the preceding compound, the IC50 is about 15-fold higher.

`COC(=O)c1cccc(COc2ccc(-c3ncc4cccc(Cl)c4n3)cc2)c1` [Example 6, Methyl 3-((4-(8-chloroquinazolin-2-yl)phenoxy)methyl)benzoate] displayed a concentration for half-maximal inhibition (IC50) of 6.16 µM. This IC50 lies about 2.6-fold lower than the previous one.

The record behind these values is US20220348549A1 (Hoffmann-La Roche Inc., priority 2019, published 2022).
